EC50 data for 17 molecules are collected here from patent US10344019B2 (priority 2010, dated 2019).

Holding throughout (format): cell-based
The subject of experiment [1] is HCV 2a JFH-1 Rluc cells (dicistronic genotype 2a JFH-1 replicon, RLuc reporter). Briefly: microbe, parasite or virus in culture. The conditions noted are these: Hepatitis C virus, genotype 2a JFH-1 RLuc replicon; read-out: 2a JFH. The gist of the method: (§1)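 Replicon cells stably carrying the listed RLuc-encoding dicistronic replicons were seeded and treated with DMSO serial dilutions of compound (10 mM stocks) diluted into culture medium. After 72 h, cells were lysed and Renilla luciferase activity measured. EC50 was derived by non-linear regression.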
(In general: In antiviral work, replicon cells carry a viral genome segment that copies itself.)

Experiment [2] deals with HCV 3a RLuc cells (NS5A chimeric genotype 1b Con1 replicon with consensus genotype 3a NS5A gene). Briefly: microbe, parasite or virus in culture. The following applies: Hepatitis C virus, read-out: 3a, genotype 3a NS5A chimeric replicon. An outline of the steps:
as §1

Experiment [3] concerns HCV 1b RLuc cells (dicistronic genotype 1b Con1 replicon, RLuc reporter). Briefly: microbe, parasite or virus in culture. The following applies: Hepatitis C virus, read-out: 1b (nM). The gist of the method: as §1
Experiment [4] concerns HCV 4a Rluc cells (NS5A chimeric genotype 1b Con1 replicon with genotype 4a NS5A gene). Description: microbe, parasite or virus in culture. The conditions noted are these: Hepatitis C virus, read-out: 4a. An outline of the steps: as §1
Experiment [5] deals with HCV 1a RLuc cells (dicistronic genotype 1a H77 replicon, RLuc reporter). Description: microbe, parasite or virus in culture. The following applies: Hepatitis C virus, genotype 1a H77 RLuc replicon; read-out: 1a. The gist of the method: as §1
Experiment [6] concerns HCV 2b Rluc cells (NS5A chimeric genotype 2a JFH-1 replicon with genotype 2b MD2b-1 NS5A gene, M31 present). Briefly: microbe, parasite or virus in culture. The conditions noted are these: Hepatitis C virus, read-out: 2b. The gist of the method:
as §1

For experiment [7], the system named is HCV 2a Rluc cells (NS5A chimeric genotype 2a JFH-1 replicon with genotype 2a J6 strain NS5A gene, M31 present). Description: HCV replicon reporter assay, genotype 2a J6 (M31 present). The following applies: Hepatitis C virus, read-out: 2a J6. An outline of the steps:
as §1

Regarding `COC(=O)N[C@H](C(=O)N1CCC[C@H]1c1ncc(-c2ccc3c(c2)COc2cc4c(cc2-3)CCc2nc([C@@H]3CCCN3C(=O)[C@H](NC(=O)C3CC3)c3ccccc3)[nH]c2-4)[nH]1)C(C)C` [Example 503], the EC50 in experiment [1] was 1 to 999 pM; in experiment [2], 1 to 990 pM; in experiment [3], 0.041 nM; in experiment [4], 1 to 990 pM; in experiment [5], 1 to 999 pM; in experiment [6], 1 to 999 pM. In addition, the EC50 in experiment [7] was 1 to 999 pM.

As to `COC(=O)N[C@@H](C(=O)N1C[C@@H](C)C[C@H]1c1ncc(-c2cc3c4c(c2)OCc2cc(-c5cnc([C@@H]6C[C@H](C)CN6C(=O)[C@H](NC(=O)OC)c6ccccc6)[nH]5)cc(c2-4)OC3)[nH]1)c1ccccc1` [Example 505], the EC50 in experiment [1] is 1 to 999 pM; in experiment [2], 1 to 990 pM; in experiment [3], 0.019 nM; in experiment [4] it was 1 to 990 pM; in experiment [5], 1 to 999 pM; in experiment [6], 1 to 999 pM. For the same molecule, the EC50 in experiment [7] was 1 to 999 pM.

`COC[C@H]1C[C@@H](c2nc3ccc4cc(-c5ccc6c(ccc7nc([C@@H]8CCCN8C(=O)[C@@H](NC(=O)OC)C(C)C)[nH]c76)c5)ccc4c3[nH]2)N(C(=O)[C@H](NC(=O)C2CC2)c2ccccc2)C1` [Example 508]: the EC50 in experiment [1] is 1 to 999 pM; in experiment [2], 1 to 990 pM; in experiment [3], 0.026 nM; in experiment [4], 1 to 990 pM; in experiment [5] it was 1 to 999 pM; in experiment [6], 1 to 999 pM. For the same molecule, the EC50 in experiment [7] was in the range of 1 to 999 pM.

With `CC[C@H](C)[C@H](NC(=O)OC)C(=O)N1CCC[C@H]1c1nc2ccc3cc(-c4ccc5c(ccc6nc([C@@H]7C[C@H](COC)CN7C(=O)[C@H](NC(=O)OC)c7ccccc7)[nH]c65)c4)ccc3c2[nH]1` [Example 509], the EC50 is 1 to 999 pM in experiment [1]; 1 to 990 pM in experiment [2]; 0.028 nM in experiment [3]; 1 to 990 pM in experiment [4]; 1 to 999 pM in experiment [5]; 1 to 999 pM in experiment [6]. In experiment [7], the EC50 fell in the range of 1 to 999 pM.

Regarding `COC[C@H]1C[C@@H](c2nc3ccc4cc5c(cc4c3[nH]2)OCc2cc(-c3cnc([C@@H]4CCCN4C(=O)[C@H](NC(=O)C4CC4)c4ccccc4)[nH]3)ccc2-5)N(C(=O)[C@@H](NC(=O)OC)C(C)C)C1` [Example 510], the EC50 in experiment [1] is 1 to 999 pM; in experiment [2], 1 to 990 pM; in experiment [3], 0.05 nM; in experiment [4] it was 1 to 990 pM; in experiment [5] it was 1 to 999 pM; in experiment [6], 1 to 999 pM. Besides, the EC50 in experiment [7] fell in the range of 1 to 999 pM.

Take `CC[C@H](C)[C@H](NC(=O)OC)C(=O)N1CCC[C@H]1c1nc2ccc3cc(-c4ccc5c(ccc6nc([C@@H]7C[C@H](COC)CN7C(=O)[C@H](NC(=O)C7CC7)c7ccccc7)[nH]c65)c4)ccc3c2[nH]1` [Example 511]: the EC50 was 1 to 999 pM in experiment [1]; 1 to 990 pM in experiment [2]; 0.019 nM in experiment [3]; 1 to 990 pM in experiment [4]; 1 to 999 pM in experiment [5]; 1 to 999 pM in experiment [6]. Further, in experiment [7], the EC50 is 1 to 999 pM.

With `COC[C@H]1C[C@@H](c2nc3ccc4cc(-c5ccc6c(ccc7nc([C@@H]8CCCN8C(=O)[C@H](NC(=O)C8CC8)c8ccccc8)[nH]c76)c5)ccc4c3[nH]2)N(C(=O)[C@@H](NC(=O)OC)C(C)C)C1` [Example 512], the EC50 is 1 to 999 pM in experiment [1]; 1 to 990 pM in experiment [2]; 0.035 nM in experiment [3]; 1 to 990 pM in experiment [4]; 1 to 999 pM in experiment [5]; 1 to 999 pM in experiment [6]. Besides, the EC50 in experiment [7] was in the range of 1 to 999 pM.

Consider `COC[C@H]1C[C@@H](c2ncc(-c3cc4c5c(c3)OCc3cc(-c6cnc([C@@H]7C[C@H](COC)CN7C(=O)[C@@H](NC(=O)OC)C(C)C)[nH]6)cc(c3-5)OC4)[nH]2)N(C(=O)[C@@H](NC(=O)OC)C(C)C)C1` [Example 513], for which the EC50 in experiment [1] is 1 to 999 pM; in experiment [2], 1 to 990 pM; in experiment [3] it was 0.068 nM; in experiment [4], 1 to 990 pM; in experiment [5], 1 to 999 pM; in experiment [6] it was 1000 to 44000 pM. Also, in experiment [7], the EC50 is 1000 to 44000 pM.

For the molecule `COC(=O)N[C@H](C(=O)N1CCC[C@H]1c1nc2ccc3cc(-c4ccc5c(ccc6nc([C@@H]7C[C@H](COC(F)F)CN7C(=O)[C@@H](NC(=O)OC)C(C)C)[nH]c65)c4)ccc3c2[nH]1)C(C)C` [Example 514], the EC50 in experiment [1] is 1 to 999 pM; in experiment [2], 1 to 990 pM; in experiment [3], 0.01 nM; in experiment [4], 1 to 990 pM; in experiment [5], 1 to 999 pM; in experiment [6], 1 to 999 pM. Further, in experiment [7], the EC50 is 1 to 999 pM.

With `COC(=O)N[C@H](C(=O)N1CCC[C@H]1c1nc2ccc3cc(-c4ccc5c(ccc6nc([C@@H]7C[C@H](SC)CN7C(=O)[C@@H](NC(=O)OC)C(C)C)[nH]c65)c4)ccc3c2[nH]1)C(C)C` [Example 515], the EC50 in experiment [1] is 1 to 999 pM; in experiment [2], 1 to 990 pM; in experiment [3], 0.047 nM; in experiment [4], 1 to 990 pM; in experiment [5], 1 to 999 pM; in experiment [6], 1000 to 44000 pM. The EC50 in experiment [7] was in the range of 1 to 999 pM.

For the molecule `COC(=O)N[C@H](C(=O)N1CCC[C@H]1c1ncc(-c2ccc3c(c2)COc2cc4c(ccc5nc([C@@H]6C[C@H]7C[C@H]7N6C(=O)[C@@H](NC(=O)OC)C(C)C)[nH]c54)cc2-3)[nH]1)C(C)C` [Example 518], the EC50 in experiment [1] is 1 to 999 pM; in experiment [2], 1 to 990 pM; in experiment [3], 0.01 nM; in experiment [4], 1 to 990 pM; in experiment [5] it was 1 to 999 pM; in experiment [6], 1 to 999 pM. Besides, the EC50 in experiment [7] was 1000 to 44000 pM.

Regarding `COC(=O)N[C@H](C(=O)N1CCC[C@H]1c1nc2ccc3cc(-c4ccc5c(ccc6nc([C@@H]7C[C@H](COC(F)F)CN7C(=O)[C@H](NC(=O)C7CC7)c7ccccc7)[nH]c65)c4)ccc3c2[nH]1)C(C)C` [Example 547], the EC50 in experiment [1] was 1 to 999 pM; in experiment [2] it was 1 to 990 pM; in experiment [3], 0.005 nM; in experiment [4], 1 to 990 pM; in experiment [5], 1 to 999 pM; in experiment [6], 1 to 999 pM. Further, the EC50 in experiment [7] lay in the range of 1 to 999 pM.

For the molecule `CC#Cc1cc(-c2cnc([C@@H]3CCCN3C(=O)[C@@H](NC(=O)OC)C(C)C)[nH]2)ccc1-c1ccc2c(ccc3nc([C@@H]4C[C@H](COC)CN4C(=O)[C@H](NC(=O)OC)c4ccccc4)[nH]c32)c1` [Example 549], the EC50 in experiment [1] was 1 to 999 pM; in experiment [2], 1 to 990 pM; in experiment [3], 0.007 nM; in experiment [4], 1 to 990 pM; in experiment [5] it was 1 to 999 pM; in experiment [6], 1 to 999 pM. In experiment [7], the EC50 is 1 to 999 pM.

Regarding `COC[C@H]1C[C@@H](c2nc3ccc4cc(-c5ccc6c(ccc7nc([C@@H]8C[C@H](C)CN8C(=O)[C@@H](NC(=O)OC)C(C)C)[nH]c76)c5)ccc4c3[nH]2)N(C(=O)[C@H](NC(=O)OC)c2ccccc2)C1` [Example 553], the EC50 in experiment [1] is 1 to 999 pM; in experiment [2] it was 1 to 990 pM; in experiment [3], 0.014 nM; in experiment [4] it was 1 to 990 pM; in experiment [5], 1 to 999 pM; in experiment [6] it was 1 to 999 pM. In experiment [7], the EC50 was in the range of 1 to 999 pM.

In the case of `COC(=O)N[C@H](C(=O)N1C[C@@H](C)C[C@H]1c1ncc(-c2cc3c4c(c2)OCc2cc(-c5cnc([C@@H]6C[C@H](C)CN6C(=O)[C@H](NC(=O)OC)c6ccccc6)[nH]5)cc(c2-4)OC3)[nH]1)C(C)C` [Example 564], the EC50 in experiment [1] is 1 to 999 pM; in experiment [2], 1 to 990 pM; in experiment [3], 0.012 nM; in experiment [4] it was 1 to 990 pM; in experiment [5], 1 to 999 pM; in experiment [6], 1 to 999 pM. Further, in experiment [7], the EC50 lay within 1000 to 44000 pM.

In the case of `COC[C@H]1C[C@@H](c2ncc(-c3ccc(-c4ccc(-c5cnc([C@@H]6C[C@H](SC)CN6C(=O)[C@@H](NC(=O)OC)C(C)C)[nH]5)cc4)cc3)[nH]2)N(C(=O)[C@H](NC(=O)C2CC2)c2ccccc2)C1` [Example 570], the EC50 in experiment [1] was 1 to 999 pM; in experiment [2], 1 to 990 pM; in experiment [3], 0.033 nM; in experiment [4], 1 to 990 pM; in experiment [5], 1 to 999 pM; in experiment [6], 1 to 999 pM. In experiment [7], the EC50 lay in the range of 1 to 999 pM.

In the case of `COC(=O)N[C@H](C(=O)N1CCCC1c1ncc(-c2ccc3c(c2)COc2cc4c(ccc5nc([C@@H]6C[C@@H]7CCC[C@@H]7N6C(=O)[C@@H](NC(=O)OC)C(C)C)[nH]c54)cc2-3)[nH]1)C(C)C` (some centres unmarked) [Example 576], the EC50 in experiment [1] is 1 to 999 pM; in experiment [2] it was 1 to 990 pM; in experiment [3], 0.014 nM; in experiment [4], 1 to 990 pM; in experiment [5], 1 to 999 pM; in experiment [6], 1 to 999 pM. For the same molecule, the EC50 in experiment [7] is 1000 to 44000 pM.
